Values after ≈ are worked out from the molar mass of the structure shown. Where two headings read alike, the source gives them in different places.
Assays:
[1] = tested on: P. falciparum 3D7 strain (Pf3D7); assay: Antiplasmodial activity against P. falciparum 3D7 blood-stage parasites (SYBR Green, 72 h); assay type: cell-based, Plasmodium falciparum; conditions: Plasmodium falciparum
[2] = tested on: P. falciparum NF54 strain; assay: Antiplasmodial activity against P. falciparum NF54 (SYBR Green, 72 h); assay type: cell-based, Plasmodium falciparum; conditions: Plasmodium falciparum, NF54, drug-sensitive NF54, strain panel; read-out: IC50 ± SD, NF54
P. falciparum K1 strain = assay: Antiplasmodial activity against resistant P. falciparum K1; assay type: cell-based; conditions: Plasmodium falciparum
P. falciparum Dd2 strain = assay: Antiplasmodial activity against resistant P. falciparum Dd2; assay type: cell-based; conditions: Plasmodium falciparum
[3] = tested on: P. falciparum RF12 strain; assay: Antiplasmodial activity against resistant P. falciparum RF12; assay type: cell-based; conditions: Plasmodium falciparum, read-out: IC50 ± SD, RF12
P. falciparum 7G8 strain = assay: Antiplasmodial activity against resistant P. falciparum 7G8; assay type: cell-based; conditions: Plasmodium falciparum; resistant strain 7G8; read-out: IC50 ± SD, 7G8
[4] = tested on: P. falciparum TM90-2CB strain; assay: Antiplasmodial activity against resistant P. falciparum TM90-2CB; assay type: cell-based; conditions: Plasmodium falciparum; resistant strain TM90-2CB; read-out: IC50 ± SD, TM90-2CB
[5] = eLogD at pH 7.4, miniaturized shake flask method; assay type: physicochemical; conditions: 1-octanol/PBS (1:1, v/v), pH 7.4, pH 7.4, miniaturized shake flask method
Procedure: eLogD at pH 7.4 was determined using a miniaturized shake flask method. A solution of a presaturated mixture of 1-octanol and phosphate-buffered saline (PBS) (1:1, v/v) and the test compound (75 μM) was incubated at 25 °C with constant shaking (850 rpm) for 2h. After incubation, the organic and aqueous phases were separated, and samples of each phase were transferred to a plate for dilution. […] The samples were quantitated using LC-MS/MS. The experiment was carried out in duplicate. Propranolol, Amitriptyline, and Midazolam were used as reference standards.

[6] = Kinetic solubility at pH 7.4; assay type: physicochemical; conditions: phosphate-buffered saline, 25 °C, pH 7.4, aqueous buffer, kinetic from dmso stock; read-out: Kinetic solubility (Sol)
Procedure: Kinetic solubility assay was performed using UV–vis detection. […] The samples were filtered using a multiscreen solubility filter plate. The filtrate was diluted by 50% with MeCN. A five-point linearity curve was prepared in PBS/MeCN (1:1, v/v) at 200, 150, 75, 25, and 2.5 μM. Blank, linearity, and test samples (n = 2) were transferred to a UV-readable plate, and the plate was scanned for absorbance. Best-fit calibration curves were constructed using the calibration standards and used to determine the test sample solubility. The experiment was carried out in duplicate. Diethylstilbestrol, Haloperidol, and Diclofenac Sodium were used as reference standards.

Rat hepatocyte stability = assay type: in vitro ADME; conditions: rat hepatocyte stability
Procedure: The reaction was terminated with the addition of ice-cold MeCN at designated time points. The samples were then centrifuged (4200 rpm) for 20 min at 20 °C, and the supernatant was half diluted in water and then analyzed using LCMS/MS. The % parent compound remaining, half-life (t 1/2), and clearance (CLint) were calculated using standard methodology. The experiment was carried out in duplicate. Diltiazem, 7-Ethoxy Coumarin, Propranolol, and Midazolam were used as reference standards.

[7] = Human liver microsome stability; assay type: in vitro ADME; conditions: human, pooled human liver microsomes, human microsomal intrinsic clearance; read-out: hMics, human microsome Clint
Procedure: A solution of the test compounds in phosphate buffer solution (1 μM) was incubated in pooled human or mouse liver microsomes (0.5 mg/mL) for 0, 5, 20, 30, 45, and 60 min at 37 °C in the presence and absence of an NADPH regeneration system (NRS). The tests were conducted by […], India. The reaction was terminated with the addition of ice-cold acetonitrile, containing a […] standard, at designated time points. The sample was centrifuged (4200g) for 20 min at 20 °C and the supernatant was diluted by half in water and then analyzed by LC-MS/MS. The % parent compound remaining, half-life (t 1/2) and clearance (CLint) were calculated using standard methodology. The experiment was carried out in duplicate. Verapamil, diltiazem, phenacetin, and imipramine were used as reference standards.

[8] = Resazurin assay for cytotoxicity in HepG2 cells; assay type: cell-based, human; conditions: human, HepG2 cells; HepG2 cell line, 72 h, resazurin
Procedure: HepG2 cells were trypsinized, counted, and distributed in a 96-well plate at a density of 30,000 cells per well (180 μL). The plate was incubated at 37 °C and 5% CO2 for 24 h. Following incubation, 20 μL of serial dilutions of the tested compounds were added to the wells, with concentrations ranging from 30 to 0.47 μM. The plate was incubated for an additional 72 h at 37 °C and 5% CO2. Untreated cells served as positive controls, while wells containing only medium were used as negative controls. Postincubation, microscopy was employed to determine the highest compound concentration for treatment results. […] Concentration–response curves were generated, and half-maximal inhibitory concentration (CC50) values were determined using nonlinear regression analysis.

[9] = tested on: male P. falciparum gametocytes; assay: P. falciparum dual gamete formation assay (Pf DGFA), male gametocytes; assay type: cell-based; conditions: Plasmodium falciparum, read-out: inhibition against male gametocytes
[10] = tested on: female P. falciparum gametocytes; assay: P. falciparum dual gamete formation assay (Pf DGFA), female gametocytes; assay type: cell-based; conditions: Plasmodium falciparum, read-out: inhibition against female gametocytes
[11] = tested on: P. falciparum 3D7 (chloroquine-sensitive); assay: Effect of verapamil on inhibitory activity in P. falciparum 3D7; assay type: cell-based; conditions: Plasmodium falciparum
[12] = tested on: P. falciparum Dd2 (chloroquine resistance); assay: Effect of verapamil on inhibitory activity in P. falciparum Dd2; assay type: cell-based; conditions: Plasmodium falciparum; Dd2, absence of verapamil; read-out: IC50^Dd2 (without VP)
[13] = tested on: P. vivax field isolates from Brazil; assay: Ex vivo drug susceptibility of P. vivax field isolates; assay type: cell-based; conditions: Plasmodium vivax, ex vivo
[14] = tested on: P. falciparum field isolates from Brazil; assay: Ex vivo drug susceptibility of P. falciparum field isolates; assay type: cell-based, Plasmodium falciparum
P. falciparum 3D7 clone = assay: Ex vivo schizont maturation assay, 3D7 laboratory strain control; assay type: cell-based; conditions: Plasmodium falciparum, ex vivo assay conditions
[15] = tested on: P. falciparum (3D7 strain) digestive vacuole; assay: Digestive vacuole homeostasis, acridine orange fluorescence; assay type: cell-based, Plasmodium falciparum; conditions: 10 μM, 3 min treatment, isolated parasites
Procedure: The sample was incubated for 40 min at 37 °C. […] Fluorescence was measured in a Hitachi F-7000 fluorimeter (Tokyo, Japan) by continuous measurement of the fluorescence (λex = 488 nm; λem = 560 nm) at 37 °C. Experiments were performed in triplicate.

[16] = tested on: synchronized P. falciparum parasites (3D7 strain); assay: P. falciparum asexual blood stage-specificity assay (8 h exposures); assay type: cell-based, Plasmodium falciparum

O=C(c1cc2cc(C(F)(F)F)ccc2[nH]1)N(Cc1cccnc1)CC1CCNC1 (stereo not shown) [Compound 6f, N-(3-Pyridylmethyl)-N-(pyrrolidin-3-ylmethyl)-5-(trifluoromethyl)-1H-indole-2-carboxamide]
IC50 ([1]; 3D7, 72 h, 3D7 strain, 72 h, SYBR Green, read-out: Pf3D7-IC50): 400 ± 100 nM | IC50 ([1]; 3D7, drug-sensitive 3D7, strain panel, read-out: IC50 ± SD, 3D7): 400 ± 100 nM | IC50 ([1]; 3D7 / DD2, sensitive 3D7, in parallel with K1 and Dd2, read-out: IC50^3D7 ± SD): 400 ± 200 nM | IC50 [2]: 370 ± 60 nM | IC50 (P. falciparum K1 strain; 3D7 / K1, resistant K1, in parallel with 3D7, read-out: IC50^K1 ± SD): 4500 ± 200 nM | IC50 (P. falciparum K1 strain; resistant strain K1, strain panel, read-out: IC50 ± SD, K1): 7300 ± 200 nM | IC50 (P. falciparum Dd2 strain; 3D7 / DD2, resistant Dd2, in parallel with 3D7, read-out: IC50^Dd2 ± SD): > 10000 nM | IC50 (P. falciparum Dd2 strain; resistant strain Dd2, strain panel, read-out: IC50 ± SD, Dd2): 2600 ± 400 nM | IC50 [3]: 2000 ± 300 nM | IC50 (P. falciparum 7G8 strain): 1800 ± 300 nM | IC50 [4]: 2800 ± 500 nM | logD at 2 h [5]: 1.1 | solubility kinetic at 2 h [6]: 195 µM (≈ 78.5 µg/mL) | R Heps (Clint) (Rat hepatocyte stability): 2.6 μL/min/10^6 | microsomal CLint at 1 μM [7]: 11 µL/min/mg | CC50 at 72 h [8]: > 30000 nM | inhibition at 1 µM [9]: 28% | inhibition at 1 µM [10]: 7% | IC50 ([11]; 3D7, verapamil experiment, read-out: IC50 in 3D7 strain): ~200 nM | IC50 ([11]; read-out: IC50^3D7 (10 μM VP), 3D7, presence of 10 μM verapamil): 460 nM | IC50 ([11]; 3D7, absence of verapamil, read-out: IC50^3D7 (without VP)): 196 nM | IC50 [12]: 4030 nM | IC50 ([13]; 9 clinical isolates, read-out: median IC50 (range), P. vivax (9)): 698 nM | EC50 ([13]; read-out: median EC50 against P. vivax field isolates): 698 nM | EC50 ([13]; read-out: range of EC50 across individual P. vivax isolates): 636 to 910 nM | IC50 ([14]; Plasmodium falciparum, 7 clinical isolates, ex vivo, read-out: median IC50 (range), P. falciparum (7)): > 10000 nM | activity against P. falciparum field isolates ([14]; concentration of 10 μM): inactive | EC50 (P. falciparum 3D7 clone; 3D7, read-out: EC50 against the P. falciparum 3D7 clone): 363 nM | IC50 (P. falciparum 3D7 clone; 3D7 control, read-out: P. falciparum 3D7 IC50): 363 nM | effect on digestive vacuole H+ homeostasis (acridine orange fluorescence) [15]: interferes with proton (H^+) homeostasis | timing of peak activity (lowest IC50^8h) in asexual blood stages [16]: increased potency on the early ring forms
